Values quoted from earlier work, collected in patent publication US11185067B2, “Attractants for rats” (priority 2015, dated 2021).

test system: rats; details: odor-painted glass rods inserted into cage; Zhang et al. 2008, 2011

| SMILES | effects on rat behavior |
| --- | --- |
| CCCCCC(C)=O [2-heptanone] | inducing sniffing or licking |
| CCCCCCCC(C)=O [2-nonanone] | inducing sniffing or licking |
| CCCC(=O)CCC [4-heptanone] | inducing sniffing or licking |
